We go through seven substances from patent publication US20090297545A1, “IMMUNOMODULATORY DAIRY PEPTIDES AND USES THEREOF” (Universite Laval, priority 2008, published 2009).

What all share (assay type): cell-based, BALB/c mice
Assay [1] concerns murine splenocytes. In words: In vitro murine splenocyte proliferation assay (Alamar Blue), Example III. As to conditions: for Effect on ConA-induced proliferation at low concentrations: 10 and 100 μg/mL; for Effect on ConA-induced proliferation at low concentrations / Effect on splenocyte proliferation in the presence of ConA at higher concentrations: ConA 0.5 μg/mL; for Concentration at which stimulation of resting cell proliferation becomes significant: resting cells, dose-dependent up to 2000 μg/mL. The method, then:
In vitro murine splenocyte proliferation assay. The impact of whey peptides on splenocyte proliferation was assessed as follow. Spleens from 6-week-old female BALB/c mice (Charles River, St-Constant, QC, Canada) were removed, mechanically disrupted in complete RPMI-1640 medium (RPMI-1640 medium supplemented with 2 mmol L^−1 L-glutamine (Wisent, St-Bruno, QC, Canada), 10% foetal calf serum (FCS, Wisent), 50 μmol L^−1 mercaptoethanol (Sigma-Aldrich), and 100 μg mL^−1 of penicillin/streptomycin (Wisent), and then filtered through 70 μm cell strainer (BD Falcon, Bedford, Mass., USA) under aseptic conditions. Erythrocytes were lysed by osmotic shock using 0.87% NH4Cl (Sigma-Aldrich) for 2 min at 37° C., then cells were washed 3 times at 4° C. with complete RPMI. They were stained with 0.4% trypan blue (Celigro, Mediatech, Washington, D.C., USA) and counted using a Malassez chamber. The cell suspension was then adjusted to 1.25×10^6 viable cells mL^−1 in RPMI medium.
The cells (100 μL) were added to the wells of 96-well round-bottomed microplates containing 50 μL of RPMI, or 50 μL of peptide solutions. Various concentrations (10-2000 μg mL^−1) of the solutions, which were prepared in complete RPMI and adjusted to pH 7, were added to the wells. The same experiments were also performed in the presence of ConA (0.5 μg mL^−1) to evaluate the effects of the products on ConA-stimulated cells. The microplates with and without ConA were incubated for 72 h and 96 h, respectively. Cell proliferation was evaluated by the reduction of the fluorochrome Alamar Blue™ (BioSource international, Camarillo, Calif., USA), which was added to the wells (20 μL) for the last 24 h of the incubation periods. The fluorescence of the supernatants was monitored at an excitation wavelength of 544 nm and an emission wavelength of […] using a fluorometer (Fluoroscan Ascent, Thermo Electron Inc., Milford, Mass., USA). Data are expressed as a stimulation index (SI).
For orientation: The colour change of resazurin is a common sign of viable cells or microbes.

The subject of assay [2] is murine splenocytes. In words: Cytokine profile of splenocyte supernatants, RayBio Mouse Cytokine Antibody Array. Conditions: peptide 2000 μg/mL + ConA 0.5 μg/mL, 72 h; Cells + ConA = 1. The method, then:
Cytokine analyses. After 72 hours, the supernatants from the splenocyte cultures with the cells, cells+ConA (0.5 μg/mL), and each of the peptides (2000 μg/mL) in the presence of ConA (0.5 μg/mL) were collected and stored at −20° C. until used for the cytokine detection assay. A cytokine profile analysis was performed by using the RayBio Mouse Cytokine Antibody Array G series 2 (RayBiotech, Inc., Norcross, Ga.), in order to obtain semi-quantitative levels of 32 different growth factors, cytokines and chemokines (Table 7).
Incubation protocol, signal detection, and interpretation of the data were performed according to manufacturer instructions. Results were expressed as the relative quantity of cytokines detected in the culture supernatants calculated according to the following equation: […]

Assay [3] has as its system murine splenocytes. In words: Ex vivo murine splenocytes proliferation assay (Alamar Blue), Example I. As to conditions: for Stimulation index, proliferation of murine splenocytes in the presence of Concavanalin A: ConA 0.5 μg/mL; for Stimulation index, proliferation of resting murine splenocytes: without ConA. The method, then: Ex vivo murine splenocytes proliferation assay. The splenocytes were isolated from 6- to 12-weeks-old female BALB/c mice (Charles River, St-Constant, QC, Canada) and cultured in the absence and presence of suboptimal concentration of ConA (0.5 μg/mL). The peptides were solubilized in complete RPMI medium, agitated overnight at 4° C. then the solutions were adjusted to pH 7. Thereafter, the peptide solutions were added at various final concentrations (10-2000 μg/mL, protein basis) to the wells of 96-well round-bottomed microplates, which were incubated at 37° C. at 80% relative humidity in a 5% CO2 atmosphere for 72 h (with ConA) or 96 h (without ConA). Cell proliferation was evaluated by the reduction of the fluorochrome Alamar Blue™ (BioSource international, Camarillo, Calif., USA), which was added into the wells for the last 24 h of the incubation periods. The fluorescence of the supernatants was monitored at an excitation wavelength of 560 nm and an emission wavelength of 590 nm using a fluorometer (Fluoroscan Ascent, Thermo Electron Inc., Milford, Mass., USA). The assays were performed in triplicate (three wells per sample) and data are expressed as stimulation indices (SI), and calculated using the following equations: […]

The test system of assay [4] is murine splenocytes. The assay is described as follows: Cytokine secretion in splenocyte culture supernatants by ELISA, Example I. The method, then:
Cytokine analysis. The supernatants from 72 h-splenocytes cultures were collected and their cytokine content was measured. The optimal incubation times were determined from preliminary assays with peptide fractions. The levels of IL-4, IL-10 and IFN-γ were determined using commercial ELISA kits (BioLegend, San Diego, Calif., USA) according to the manufacturer's instructions. Interleukin-2 levels were also measured by ELISA using a commercial kit (BioSource International, Camarillo, Calif., USA) according to the manufacturer's instructions. The results are the means of four or more assays (three wells per sample). The detection limits for IL-2, IL-4, IL-10 and IFN-γ were <8.0, <1.0, <30.0 and <4.0 pg/mL, respectively.
Cytokine analysis were performed at concentration leading to optimal spleen cells proliferation of peptide β-Lg f139-148 (SEQ ID NO. 1) (2000 μg/mL) as reported in Tables 2 and 3. The sequence β-Lg f78-83 (SEQ ID NO. 10), resulting in no effect on the cytokine secretion of resting- and ConA-stimulated murine splenocytes (results not shown), was used as control at concentration of 10 μg/mL for statistical analysis. The effects of the selected peptide on cytokine secretion from splenocytes cultured in the absence and presence of 0.5 μg/mL of ConA are shown in Table 5.

Where [5] appears, read: splenocytes with ConA 0.5 μg mL^−1, peptide 2000 μg mL^−1.
[6] abbreviates: splenocytes without ConA, peptide 2000 μg mL^−1.

Marks after values point to notes of the source that are not given here.

In the case of “Asp-Thr-Asp-Tyr (DTDY; listed as Homo sapiens) [β-Lg f96-99]”, in the assay on murine splenocytes [1], the “Effect on ConA-induced proliferation at low concentrations” value is “inhibited”, the “Effect on splenocyte proliferation in the presence of ConA at higher concentrations” value (from here on “Effect on splenocyte proliferation”) was “lost their stimulating capacity” and the “Concentration at which stimulation of resting cell proliferation becomes significant” value came out at 500 µg/mL. Further, in the assay with murine splenocytes [2], the “Relative quantity of IFN-γ in supernatant” value (shortened to “Relative quantity of IFN-γ”) is 4.5, the “Relative quantity of IL-2 in supernatant” value is reported as 3.6, the “Relative quantity of IL-3 in supernatant” value was 2.8 and the “Relative quantity of IL-4 in supernatant” value was found to be 1.8. Also, in the assay with murine splenocytes [2], the “Relative quantity of IL-17 in supernatant” value is reported as 1.7, the “Relative quantity of RANTES in supernatant” value (from here on “Relative quantity of RANTES”) is on record as 1.4 and the “Relative quantity of VEGF in supernatant” value came to 2.3.
In the case of “GLDIQK (listed as Homo sapiens) [β-Lg f9-14]”, the “Effect on proliferation of resting splenocytes” value in the assay with murine splenocytes [1] (10-2000 μg/mL, without ConA) is recorded as “only a small stimulation at the highest concentration”. In the assay on murine splenocytes [1], the “Effect on splenocyte proliferation” value was “lost their stimulating capacity”. Besides, in the assay on murine splenocytes [2], the “Relative quantity of IFN-γ” value is on record as 1.7, the “Relative quantity of IL-2 in supernatant” value turned out to be 2.6, the “Relative quantity of IL-3 in supernatant” value was found to be 1.0 and the “Relative quantity of IL-4 in supernatant” value is on record as 1.4. Moreover, in the assay on murine splenocytes [2], the “Relative quantity of IL-17 in supernatant” value worked out at 1.1, the “Relative quantity of RANTES” value was 1.0 and the “Relative quantity of VEGF in supernatant” value is 2.0.
As to “His-Ile-Arg (HIR; listed as Homo sapiens) [β-Lg f146-148]”, the “Stimulation index (SI), proliferation of resting splenocytes” value (from here on “Stimulation index (SI), proliferation”) with murine splenocytes [1] (500 μg/mL, without ConA) was determined as 1.20. Besides, the “Stimulation index (SI), proliferation” value in the assay on murine splenocytes [1] (1000 μg/mL, without ConA) worked out at 1.36. In addition, the “Stimulation index (SI), proliferation” value in the assay on murine splenocytes [1] (2000 μg/mL, without ConA) is given as 1.37. For the same substance, in the assay on murine splenocytes [1], the “Effect on ConA-induced proliferation at low concentrations” value is given as “inhibited”, the “Effect on splenocyte proliferation” value is given as “lost their stimulating capacity” and the “Concentration at which stimulation of resting cell proliferation becomes significant” value is 500 µg/mL. Further, in the assay with murine splenocytes [2], the “Relative quantity of IFN-γ” value is recorded as 8.6, the “Relative quantity of IL-2 in supernatant” value was 2.1, the “Relative quantity of IL-3 in supernatant” value stood at 1.8 and the “Relative quantity of IL-4 in supernatant” value was 0.5. For the same substance, in the assay with murine splenocytes [2], the “Relative quantity of IL-17 in supernatant” value is on record as 1.4, the “Relative quantity of RANTES” value was determined as 0.8 and the “Relative quantity of VEGF in supernatant” value was determined as 4.8.
As to DAQSAPLR [β-Lg f33-40], in the assay on murine splenocytes [2], the “Relative quantity of IFN-γ” value worked out at 0.7, the “Relative quantity of IL-2 in supernatant” value is 0.6, the “Relative quantity of IL-3 in supernatant” value came out at 0.1 and the “Relative quantity of IL-4 in supernatant” value is on record as 0.7. In the assay on murine splenocytes [2], the “Relative quantity of IL-17 in supernatant” value worked out at 0.6, the “Relative quantity of RANTES” value was found to be 0.4 and the “Relative quantity of VEGF in supernatant” value worked out at 0.8.
Consider “ALK (listed as Homo sapiens) [β-Lg f139-141]”, for which, in the assay with murine splenocytes [1], the “Effect on splenocyte proliferation” value is reported as “lost their stimulating capacity” and the “Concentration at which stimulation of resting cell proliferation becomes significant” value was found to be 500 µg/mL. For the same substance, in the assay on murine splenocytes [2], the “Relative quantity of IFN-γ” value was determined as 1.0, the “Relative quantity of IL-2 in supernatant” value is 1.7, the “Relative quantity of IL-3 in supernatant” value is reported as 0.7 and the “Relative quantity of IL-4 in supernatant” value worked out at 1. In the assay with murine splenocytes [2], the “Relative quantity of IL-17 in supernatant” value is given as 1.1, the “Relative quantity of RANTES” value turned out to be 1.7 and the “Relative quantity of VEGF in supernatant” value amounted to 0.9.
As to IDALNENK [β-Lg f84-91], the “Stimulation index, proliferation of murine splenocytes in the presence of Concavanalin A” value with murine splenocytes [3] (peptide 10 μg mL^−1, 72 h) came out at 2.20; in the assay with murine splenocytes [3] (peptide 100 μg mL^−1, 72 h) it was 2.27; with murine splenocytes [3] (peptide 500 μg mL^−1, 72 h), 2.24; in the assay on murine splenocytes [3] (peptide 1000 μg mL^−1, 72 h), 2.18; in the assay on murine splenocytes [3] (peptide 2000 μg mL^−1, 72 h), 2.16. In addition, the “Stimulation index, proliferation of resting murine splenocytes” value is listed as 0.99 in the assay on murine splenocytes [3] (peptide 10 μg mL^−1, 96 h); 1.08 in the assay on murine splenocytes [3] (peptide 100 μg mL^−1, 96 h); 1.20* in the assay on murine splenocytes [3] (peptide 500 μg mL^−1, 96 h); 1.22* in the assay on murine splenocytes [3] (peptide 1000 μg mL^−1, 96 h); 1.27** in the assay on murine splenocytes [3] (peptide 2000 μg mL^−1, 96 h).
On to “ALKALPMHIR (listed as Homo sapiens) [β-Lg f139-148]”, for which the “Stimulation index, proliferation of murine splenocytes in the presence of Concavanalin A” value with murine splenocytes [3] (peptide 10 μg mL^−1, 72 h) was 2.28; in the assay with murine splenocytes [3] (peptide 100 μg mL^−1, 72 h), 2.24; in the assay on murine splenocytes [3] (peptide 500 μg mL^−1, 72 h), 2.36*; with murine splenocytes [3] (peptide 1000 μg mL^−1, 72 h), 2.62**; in the assay with murine splenocytes [3] (peptide 2000 μg mL^−1, 72 h) it was 2.73**. In addition, the “Stimulation index, proliferation of resting murine splenocytes” value in the assay on murine splenocytes [3] (peptide 10 μg mL^−1, 96 h) is given as 1.08*; in the assay with murine splenocytes [3] (peptide 100 μg mL^−1, 96 h), 1.17**; with murine splenocytes [3] (peptide 500 μg mL^−1, 96 h), 1.35**; in the assay with murine splenocytes [3] (peptide 1000 μg mL^−1, 96 h), 1.53**; in the assay on murine splenocytes [3] (peptide 2000 μg mL^−1, 96 h) it was 1.77**. Moreover, the results for the “IFN-γ secretion in supernatant” value in the assay with murine splenocytes [4] (setting [5]) and with murine splenocytes [4] (setting [6]) were 717.5** pg mL^−1 and 81.3** pg mL^−1, respectively. Moreover, the “IL-2 secretion in supernatant” value in the assay on murine splenocytes [4] (setting [5]) worked out at 15.8 pg/mL; in the assay on murine splenocytes [4] (setting [6]) it was 9.3 pg/mL. Moreover, the “IL-4 secretion in supernatant” value with murine splenocytes [4] (setting [5]) is 3.0** pg mL^−1; in the assay on murine splenocytes [4] (setting [6]), less than 1.0 pg/mL. The “IL-10 secretion in supernatant” value with murine splenocytes [4] (setting [5]) and in the assay with murine splenocytes [4] (setting [6]) was less than 30.0 pg/mL throughout.
